# Reference: patent US20240307426A1, “USE OF SGLT-2 INHIBITORS FOR THE PREVENTION AND/OR TREATMENT OF RENAL DISEASES IN NON-HUMAN MAMMALS” (BOEHRINGER INGELHEIM VETMEDICA GMBH, priority 2021, published 2024)
# Tested on: cats with chronic kidney disease (CKD)
# Assay: Exploratory clinical field trial in cats with CKD (Example 3)
# Format: in vivo, cat
# Parameters: key to IRIS Stage (based on serum creatinine level) / IRIS Stage (based on creatinine level) / IRIS Stage (based on the creatinine level): IRIS CKD stage assigned from serum creatinine (IRIS 2019)
# Conditions: for Phosphorus: ref 0.8-2.2; for Serum creatinine: ref 0.9-2.3; for Potassium: ref 3.3-5.8; for Hematocrit: ref 28.2-52.7; for UPC: ref <0.33
# Protocol: The clinical trial was conducted at three animal clinics. Overall, 9 cats with chronic kidney disease (CKD) were included in the study and treated once daily orally with 1 mg/kg bodyweight velagliflozin for up to 150 days (depending on the time of enrollment).
# Diagnosis of CKD was based on two measurements of serum creatinine concentration at least 2 weeks apart from each other (historical value and screening, and value at screening in fasted cats), as recommended by the International Renal Interest Society (IRIS 2019). In order to qualify for enrollment, serum creatinine levels needed to be ≥2.2 mg/dL, but <5.0 mg/dL.
# Disease staging throughout the study was performed based on serum creatinine levels in accordance with the IRIS CKD staging (IRIS 2019).
# All other cats were treated for >90 days had at least data for two time points under treatment available and were therefore evaluated. Progression of the disease, as well as IRIS staging in this study was based on the most reliable biomarker: serum creatinine.
# [1] = case 200-006, Visit 2 (Day 90), 1 mg/kg po once daily
# [2] = case 200-006, Visit 3 (Day 121), 1 mg/kg po once daily
# [3] = case 200-006, screening visit (before treatment)
# [4] = case 200-007, 1 mg/kg po once daily
# [5] = case 200-007, 1 mg/kg po once daily, whole study
# [6] = case 200-007, Visit 1 (Day 30), 1 mg/kg po once daily
# [7] = case 200-007, Visit 2 (Day 90), 1 mg/kg po once daily
# [8] = case 200-007, Visit 3 (Day 114), 1 mg/kg po once daily
# [9] = case 200-007, screening visit (before treatment)
# [10] = case 300-003 (IRIS stage 2), removed early on day 30
# [11] = case 300-008, 1 mg/kg po once daily
# [12] = case 300-008, 1 mg/kg po once daily, whole study
# [13] = case 300-008, Visit 1 (Day 30), 1 mg/kg po once daily
# [14] = case 300-008, Visit 2 (Day 90), 1 mg/kg po once daily
# [15] = case 300-008, Visit 3 (Day 103), 1 mg/kg po once daily
# [16] = case 300-008, screening visit (before treatment)
# [17] = case 400-004, 1 mg/kg po once daily
# [18] = case 400-004, 1 mg/kg po once daily, whole study
# [19] = case 400-004, Visit 1 (Day 30), 1 mg/kg po once daily
# [20] = case 400-004, Visit 2 (Day 90), 1 mg/kg po once daily
# [21] = case 400-004, Visit 3 (Day 119), 1 mg/kg po once daily
# [22] = case 400-004, screening visit (before treatment)
smiles,measurement,setting,value
"N#Cc1ccc([C@@H]2O[C@H](CO)[C@@H](O)[C@H](O)[C@H]2O)cc1Cc1ccc(C2CC2)cc1 [velagliflozin, Velagliflozin]",Systolic blood pressure,[1],155.3 mmHg
same,Phosphorus,[1],1.3 mmol/L
same,Serum creatinine,[1],2.7 mg/dL
same,Potassium,[1],4.4 mmol/L
same,Hematocrit,[1],37.3%
same,UPC,[1],0.2
same,BUN,[2],42 mg/dL
same,IRIS Stage (based on the creatinine level),[2],2
same,Owner assessment - quality of life,[2],good
same,Owner assessment of the appetite,[2],normal
same,Owner assessment of the drinking behavior,[2],excessive
same,Systolic blood pressure,[2],140.0 mmHg
same,Phosphorus,[2],2.0 mmol/L
same,Serum creatinine,[2],2.8 mg/dL
same,Potassium,[2],4.3 mmol/L
same,Hematocrit,[2],35.5%
same,BUN,[3],34 mg/dL
same,IRIS Stage (based on the creatinine level),[3],2
same,Owner assessment - quality of life,[3],good
same,Owner assessment of the appetite,[3],poor
same,Owner assessment of the drinking behavior,[3],excessive
same,Systolic blood pressure,[3],141.3 mmHg
same,Phosphorus,[3],1.3 mmol/L
same,Serum creatinine,[3],2.6 mg/dL
same,Potassium,[3],3.8 mmol/L
same,Hematocrit,[3],37.9%
same,UPC,[3],0.1
same,adverse events,[4],"three occasions of vomitus, two occasions of inappetence and one occasion of mild anaemia, leukocytopenia"
same,expected glucosuric effect,[4],confirmed
same,Serum creatinine levels (course),[5],increased mildly
same,Serum potassium levels (course),[5],remained stable within the reference range
same,Total urine protein and UPC,[5],mildly increased
same,drinking behavior (course),[5],improved to normal
same,quality of life (course),[5],changed from very good to good
same,the cat's condition,[5],stable
same,BUN,[6],40 mg/dL
same,IRIS Stage (based on the creatinine level),[6],3
same,Owner assessment - quality of life,[6],very good
same,Owner assessment of the appetite,[6],normal
same,Owner assessment of the drinking behavior,[6],normal
same,Systolic blood pressure,[6],122.7 mmHg
same,Phosphorus,[6],1.0 mmol/L
same,Serum creatinine,[6],3.2 mg/dL
same,Potassium,[6],4.0 mmol/L
same,Hematocrit,[6],35.9%
same,BUN,[7],42 mg/dL
same,IRIS Stage (based on the creatinine level),[7],3
same,Owner assessment - quality of life,[7],good
same,Owner assessment of the appetite,[7],normal
same,Owner assessment of the drinking behavior,[7],normal
same,Systolic blood pressure,[7],130.7 mmHg
same,Phosphorus,[7],1.3 mmol/L
same,Serum creatinine,[7],3.3 mg/dL
same,Potassium,[7],4.4 mmol/L
same,Hematocrit,[7],32.6%
same,UPC,[7],0.2
same,BUN,[8],43 mg/dL
same,IRIS Stage (based on the creatinine level),[8],3
same,Owner assessment - quality of life,[8],good
same,Owner assessment of the appetite,[8],normal
same,Owner assessment of the drinking behavior,[8],normal
same,Systolic blood pressure,[8],130.7 mmHg
same,Phosphorus,[8],1.3 mmol/L
same,Serum creatinine,[8],3.2 mg/dL
same,Potassium,[8],3.9 mmol/L
same,Hematocrit,[8],28.9%
same,BUN,[9],41 mg/dL
same,IRIS Stage (based on the creatinine level),[9],3
same,Owner assessment - quality of life,[9],very good
same,Owner assessment of the appetite,[9],normal
same,Owner assessment of the drinking behavior,[9],excessive
same,Systolic blood pressure,[9],139.3 mmHg
same,Phosphorus,[9],1.2 mmol/L
same,Serum creatinine,[9],2.9 mg/dL
same,Potassium,[9],4.4 mmol/L
same,Hematocrit,[9],37.6%
same,UPC,[9],0.1
same,evaluated clinical signs,[10],no worsening of the evaluated clinical signs
same,laboratory parameters,[10],stable laboratory parameters
same,reported events,[10],"Tooth pain, anorexia and feline odontoclastic-resorptive lesions (FORL) were reported"
same,adverse events,[11],No adverse event was reported
same,expected glucosuric effect,[11],confirmed
same,Drinking behavior according to owner's assessment (course),[12],improved from excessive to normal
same,condition (clinical signs and biochemical parameters),[12],stabilization of the condition
same,course of serum creatinine concentration,[12],remained stable
same,serum potassium and phosphate levels,[12],remained in the reference range
same,total urine protein and UPC ratio,[12],remained within the reference range
same,BUN,[13],65 mg/dL
same,IRIS Stage (based on creatinine level),[13],2
same,Owner assessment - quality of life,[13],good
same,Owner assessment of the appetite,[13],poor
same,Owner assessment of the drinking behavior,[13],normal
same,Systolic blood pressure,[13],150.0 mmHg
same,Phosphorus,[13],1.4 mmol/L
same,Serum creatinine,[13],1.9 mg/dL
same,Potassium,[13],4.9 mmol/L
same,Hematocrit,[13],28.8%
same,BUN,[14],64 mg/dL
same,IRIS Stage (based on creatinine level),[14],2
same,Owner assessment - quality of life,[14],good
same,Owner assessment of the appetite,[14],normal
same,Systolic blood pressure,[14],150.0 mmHg
same,Phosphorus,[14],1.5 mmol/L
same,Serum creatinine,[14],2.4 mg/dL
same,Potassium,[14],4.4 mmol/L
same,Hematocrit,[14],32.4%
same,UPC,[14],0.2
same,BUN,[15],54 mg/dL
same,IRIS Stage (based on creatinine level),[15],2
same,Owner assessment - quality of life,[15],good
same,Owner assessment of the appetite,[15],normal
same,Owner assessment of the drinking behavior,[15],normal
same,Systolic blood pressure,[15],148.7 mmHg
same,Phosphorus,[15],1.6 mmol/L
same,Serum creatinine,[15],2.6 mg/dL
same,Potassium,[15],4.4 mmol/L
same,Hematocrit,[15],28.2%
same,UPC,[15],0.3
same,BUN,[16],36 mg/dL
same,IRIS Stage (based on creatinine level),[16],2
same,Owner assessment - quality of life,[16],good
same,Owner assessment of the appetite,[16],normal
same,Owner assessment of the drinking behavior,[16],excessive
same,Systolic blood pressure,[16],148.0 mmHg
same,Phosphorus,[16],1.3 mmol/L
same,Serum creatinine,[16],2.4 mg/dL
same,Potassium,[16],4.9 mmol/L
same,Hematocrit,[16],26.7%
same,UPC,[16],0.2
same,adverse events,[17],One non-serious adverse event was reported (owner reported diarrhea)
same,expected glucosuric effect,[17],confirmed
same,Drinking behavior according to the owner (course),[18],improved from excessive to normal
same,UPC ratio (course),[18],remained in the normal range
same,condition (clinical signs and biochemical parameters),[18],improvement of the condition
same,course of BUN concentration,[18],decrease
same,course of serum creatinine concentration,[18],decrease
same,serum potassium and phosphate levels,[18],remained within the reference range
same,total urine protein,[18],reduced
same,BUN,[19],20.0 mg/dL
same,IRIS Stage (based on serum creatinine level),[19],3
same,Owner assessment - quality of life,[19],good
same,Owner assessment of the appetite,[19],normal
same,Owner assessment of the drinking behavior,[19],normal
same,Systolic blood pressure,[19],142.7 mmHg
same,Phosphorus,[19],1.3 mmol/L
same,Serum creatinine,[19],4.0 mg/dL
same,Potassium,[19],3.9 mmol/L
same,Hematocrit,[19],41.0%
same,BUN,[20],19.3 mg/dL
same,IRIS Stage (based on serum creatinine level),[20],3
same,Owner assessment - quality of life,[20],good
same,Owner assessment of the appetite,[20],poor
same,Owner assessment of the drinking behavior,[20],normal
same,Systolic blood pressure,[20],157.3 mmHg
same,Phosphorus,[20],1.3 mmol/L
same,Serum creatinine,[20],3.2 mg/dL
same,Potassium,[20],3.8 mmol/L
same,Hematocrit,[20],45.0%
same,UPC,[20],0.1
same,BUN,[21],24.3 mg/dL
same,IRIS Stage (based on serum creatinine level),[21],3
same,Owner assessment - quality of life,[21],good
same,Owner assessment of the appetite,[21],normal
same,Owner assessment of the drinking behavior,[21],normal
same,Systolic blood pressure,[21],149.3 mmHg
same,Phosphorus,[21],1.5 mmol/L
same,Serum creatinine,[21],2.9 mg/dL
same,Potassium,[21],4.0 mmol/L
same,Hematocrit,[21],45.0%
same,BUN,[22],20.2 mg/dL
same,IRIS Stage (based on serum creatinine level),[22],3
same,Owner assessment - quality of life,[22],good
same,Owner assessment of the appetite,[22],normal
same,Owner assessment of the drinking behavior,[22],excessive
same,Systolic blood pressure,[22],151.3 mmHg
same,Phosphorus,[22],1.4 mmol/L
same,Serum creatinine,[22],4.2 mg/dL
same,Potassium,[22],4.3 mmol/L
same,Hematocrit,[22],44.0%
same,UPC,[22],0.1
same,Clinical signs related to CKD,"evaluated cats, 1 mg/kg po once daily",either remained good/stable or improved in the majority of cats
same,"risk factors for progression of the disease (e.g. UPC, blood pressure, potassium, phosphorus)","feline CKD patients, 1 mg/kg orally once daily",remained stable and within the reference range
same,IRIS staging,one of the 3 cats with decreased serum creatinine (stage 3->stage 2),improved by one category
same,complications of CKD,"oral 1 mg/kg bodyweight once daily, evaluated cats",no complications of CKD observed
same,laboratory parameters related to CKD (serum creatinine) and clinical signs,the other 4 of seven evaluated cats,stable condition
